6 compounds from ChEMBL document CHEMBL3603739, “Novel diazabicycloalkane delta opioid agonists” (Bioorg Med Chem, 2015) can be followed below.

Molecules are shown by their SMILES. Calls of active or inactive are those of the source. No cut-off for these calls is given here.

The target in one data set is Mu-type opioid receptor (Mus musculus, UniProt P42866). Description: Displacement of [3H]DAMGO from mu opioid receptor in mouse brain membranes by liquid scintillation counting method. The class given is cell membranes, Membrane.
Data set [1] deals with Delta-type opioid receptor (Mus musculus, UniProt P32300). As to the kind of experiment: Displacement of [3H]DPDPE from delta opioid receptor in mouse brain membranes by liquid scintillation counting method. The format is cell membranes, Membrane.
The target in data set [2] is Kappa-type opioid receptor (Mus musculus, UniProt P33534). Description: Displacement of [3H]U-69,593 from kappa opioid receptor in mouse brain membranes by liquid scintillation counting method. The format is cell membranes, Membrane.
For data set [3], the species on record is Mus musculus. Description: Selectivity index, ratio of Ki for mu opioid receptor in mouse brain membranes to Ki for delta opioid receptor in mouse brain membranes. The class given is cell membranes.
The species named for data set [4] is Mus musculus. Description: Selectivity index, ratio of Ki for kappa opioid receptor in mouse brain membranes to Ki for delta opioid receptor in mouse brain membranes. The class given is cell membranes.
In data set [5] the test system is NG108-15. Description: Intrinsic agonist activity at delta opioid receptor in mouse/rat NG108-15 cells assessed as increase in ERK1/2 phosphorylation at 1 to 50 uM incubated for 20 mins by Western blot method. The class given is cell-based.
The test system of data set [6] is NG108-15. As to the kind of experiment: Intrinsic agonist activity at delta opioid receptor in mouse/rat NG108-15 cells assessed as increase in ERK1/2 phosphorylation at 50 nM pre-treated with 500 nM opioid antagonist naloxone for 5 mins followed by compound exposure for 20 mins by Western blot method. The format is cell-based.
For data set [7], the target named is Delta-type opioid receptor (Mus musculus) (UniProt P32300). Description: Agonist activity at delta opioid receptor in mouse vas deferens assessed as reduction in electric field stimulation-induced twitch contractions amplitude.
For data set [8] the target is unchanged. Description: Agonist activity at delta opioid receptor in mouse vas deferens assessed as reduction in electric field stimulation-induced twitch contractions amplitude in presence of 1 nM natrindole.
The target is the same in data set [9]. Description: Agonist activity at delta opioid receptor in mouse vas deferens assessed as reduction in electric field stimulation-induced twitch contractions amplitude relative to control.
The test system of data set [10] is NG108-15. As to the kind of experiment: Intrinsic agonist activity at delta opioid receptor in mouse/rat NG108-15 cells assessed as increase in ERK1/2 phosphorylation at 0.1 to 5 uM incubated for 20 mins by Western blot method. The format is cell-based.
For data set [11], the system named is NG108-15. Description: Intrinsic agonist activity at delta opioid receptor in mouse/rat NG108-15 cells assessed as increase in ERK1/2 phosphorylation At 1 nM pre-treated with 500 nM opioid antagonist naloxone for 5 mins followed by compound exposure for 20 mins by Western blot method. The format is cell-based.
Data set [12] has as its system NG108-15. As to the kind of experiment: Intrinsic agonist activity at delta opioid receptor in mouse/rat NG108-15 cells assessed as increase in ERK1/2 phosphorylation at 0.1 to 100 uM iincubated for 20 mins by Western blot method. The format is cell-based.
In data set [13] the test system is NG108-15. As to the kind of experiment: Intrinsic agonist activity at delta opioid receptor in mouse/rat NG108-15 cells assessed as increase in ERK1/2 phosphorylation by Western blot method. The class given is cell-based. As to conditions: TDE = time-dependent effect.
For data set [14], the system named is NG108-15. Description: Toxicity in mouse/rat NG108-15 cells. The format is cell-based.
Data set [15] concerns NG108-15. Description: Intrinsic agonist activity at delta opioid receptor in mouse/rat NG108-15 cells assessed as increase in ERK1/2 phosphorylation at 10 nM pre-treated with 500 nM opioid antagonist naloxone for 5 mins followed by compound exposure for 20 mins by Western blot method. The class given is cell-based.
Data set [16] deals with NG108-15. As to the kind of experiment: Intrinsic agonist activity at delta opioid receptor in mouse/rat NG108-15 cells assessed as increase in ERK1/2 phosphorylation At 5 nM pre-treated with 500 nM opioid antagonist naloxone for 5 mins followed by compound exposure for 20 mins by Western blot method. The format is cell-based.

Kappa-type opioid receptor, sequence (P33534 whole entry): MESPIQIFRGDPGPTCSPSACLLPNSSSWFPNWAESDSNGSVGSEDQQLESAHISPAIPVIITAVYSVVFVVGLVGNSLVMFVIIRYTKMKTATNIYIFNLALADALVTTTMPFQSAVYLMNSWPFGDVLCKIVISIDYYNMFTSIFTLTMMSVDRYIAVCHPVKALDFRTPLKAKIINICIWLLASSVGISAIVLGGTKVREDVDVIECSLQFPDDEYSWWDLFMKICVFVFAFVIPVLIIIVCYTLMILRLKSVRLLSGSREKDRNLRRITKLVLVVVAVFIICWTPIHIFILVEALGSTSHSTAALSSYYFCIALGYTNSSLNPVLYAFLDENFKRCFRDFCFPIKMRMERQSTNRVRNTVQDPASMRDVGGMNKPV
Delta-type opioid receptor, sequence (P32300 whole entry): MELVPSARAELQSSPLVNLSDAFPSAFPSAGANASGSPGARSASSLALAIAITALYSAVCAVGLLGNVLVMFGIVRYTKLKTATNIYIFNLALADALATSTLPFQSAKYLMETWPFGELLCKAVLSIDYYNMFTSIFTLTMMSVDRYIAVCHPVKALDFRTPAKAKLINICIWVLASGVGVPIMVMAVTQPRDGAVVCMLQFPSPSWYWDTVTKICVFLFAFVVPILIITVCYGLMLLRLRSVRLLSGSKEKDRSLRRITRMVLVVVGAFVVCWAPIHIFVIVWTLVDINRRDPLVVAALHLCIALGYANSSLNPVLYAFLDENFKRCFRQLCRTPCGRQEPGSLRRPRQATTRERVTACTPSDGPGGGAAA
Delta-type opioid receptor (Mus musculus), sequence (P32300 whole entry): as above
Mu-type opioid receptor, sequence (P42866 whole entry): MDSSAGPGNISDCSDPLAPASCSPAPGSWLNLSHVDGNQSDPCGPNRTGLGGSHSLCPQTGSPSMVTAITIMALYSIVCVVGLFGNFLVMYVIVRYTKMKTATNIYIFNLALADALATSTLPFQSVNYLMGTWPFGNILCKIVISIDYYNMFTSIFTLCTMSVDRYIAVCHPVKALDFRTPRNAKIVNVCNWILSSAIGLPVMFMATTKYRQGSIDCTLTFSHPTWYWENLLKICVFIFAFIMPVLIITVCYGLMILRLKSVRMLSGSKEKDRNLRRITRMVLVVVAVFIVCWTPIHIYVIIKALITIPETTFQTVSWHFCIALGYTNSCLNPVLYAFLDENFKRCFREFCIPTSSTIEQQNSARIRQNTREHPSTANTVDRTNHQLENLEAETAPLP

As for `C=CCN1C2CCCC1CN(C(c1ccc(C(=O)N(CC)CC)cc1)c1cccc(OC)c1)CC2` (mixture of isomers), the Ki on Mu-type opioid receptor was found to be 950 nM; in data set [1], 9.1 nM; in data set [2], 4250 nM. Also, the Ratio Ki in the data set filed under Mus musculus [3] came to 104; in the data set filed under Mus musculus [4] it was 467. For the same compound, the outcome (in the data set on NG108-15 [5]; in the data set on NG108-15 [6]; in data set [7]) was Active. Also, the outcome in [8] was inactive. Also, the Imax in data set [9] is 90%.
Consider `C=CCN1C2CCC1CN(C(c1ccc(C(=O)N(CC)CC)cc1)c1cccc(OC)c1)CC2` (mixture of isomers), for which the figures for the Ki (at Mu-type opioid receptor; in [1]; in data set [2]) were 183 nM, 1.84 nM and 2450 nM, respectively. Further, the values for the Ratio Ki in the data set listed under Mus musculus [3] and in the data set listed under Mus musculus [4] were 99.5 and 1330, respectively. For the same compound, the result in the data set with NG108-15 [10] and in the data set on NG108-15 [11] was Active.
Regarding `C=CCN1C[C@H](C)N([C@H](c2ccc(C(=O)N(CC)CC)cc2)c2cccc(OC)c2)C[C@H]1C` [SNC-80], the Activity result in the data set on NG108-15 [12] was “Dose-dependent effect”; in the data set on NG108-15 [13], “tde”; with NG108-15 [14], “Toxic”. The outcome (in the data set with NG108-15 [15]; in data set [8]) was inactive. Further, the result in data set [7] was Active.
`C=CCN1CC2CCC(C1)N2C(c1ccc(C(=O)N(CC)CC)cc1)c1cccc(OC)c1` (racemic): the results for the Ki (at Mu-type opioid receptor; in [1]; in data set [2]) were 3830 nM, 0.34 nM and 300 nM, respectively. Further, the Ratio Ki in the data set listed under Mus musculus [3] worked out at 11300; in the data set filed under Mus musculus [4], 882. Moreover, the result (in the data set on NG108-15 [10]; with NG108-15 [16]; in data set [7]) was Active. Moreover, the result in data set [8] was inactive. Further, the Imax in data set [9] stood at 90%.
Consider `C=CCN1CC2CC(C1)N2C(c1ccc(C(=O)N(CC)CC)cc1)c1cccc(OC)c1` (racemic), for which the Ki on Mu-type opioid receptor is 1150 nM; in data set [1], 1.76 nM; in data set [2], 4000 nM. For the same compound, the Ratio Ki worked out at 653 in the data set listed under Mus musculus [3] and 2270 in the data set listed under Mus musculus [4]. For the same compound, the outcome (in the data set with NG108-15 [5]; in [7]) was Active. In addition, in [8], the result was inactive. In addition, the Imax in data set [9] came out at 90%.
With `C=CCN1CC2CCCC(C1)N2C(c1ccc(C(=O)N(CC)CC)cc1)c1cccc(OC)c1` (racemic), the Ki worked out at 2270 nM on Mu-type opioid receptor, 1.88 nM in data set [1] and 2200 nM in data set [2]. Further, the Ratio Ki in the data set filed under Mus musculus [3] is 1210; in the data set listed under Mus musculus [4], 1170. Further, the result in the data set with NG108-15 [5] and in the data set on NG108-15 [6] was Active.
